What all share (type): cell-based, mouse
The test system of assay [1] is Oct4-GFP MEFs. As to the kind of experiment: iPS efficiency test: MEFs infected with SKO viruses, reprogrammed clones counted / GFP cell ratio by FCM. Particulars: for recommended working concentration: from dose-response in Basal3.0, day 10; for effect on the iCD1 reprogramming efficiency: added to iCD1: A83-01 0.5 μM, valproic acid 1 mM, 2% fetal bovine serum; for effect on the reprogramming efficiency: ingredient left out of iCD1, clones at day 8 after SKO infection. From the text: Somatic cell type used in reprogramming is OG2 MEFs of no more than 3 passages. OG2 mice are transgenic mice with green fluorescent protein (GFP) gene linked after the promoter of Oct4 gene specifically expressed by stem cell. At a later stage of the reprogramming, endogenous Oct4 of OG2 MEF is activated, and the green fluorescent protein is concomitantly expressed, so the cells or reprogrammed clones appear green when observed under a fluorescence microscope. The reprogramming efficiencies under different conditions can be compared by a research by directly counting the reprogrammed clones, that is, the green fluorescent clones under a fluorescence microscope, or by analyzing the ratio of the green fluorescent cells through flow cytometry (FCM).
Cell assay and preparation of viruses are as follows. […] 6-18 hrs after the cell seeding, the cells are infected with the viruses carrying a mouse reprogramming factor according to the cell density and state. The infection is carried out in two rounds, 24 hrs after the first round of infection, the second round of infection is carried out, and the virus fluid is replaced by various test media 24 hrs after the second round of infection. The day of replacing the virus fluid is recorded as day 0 (D0), and the GFP fluorescent clones are counted in the original wells or the ratio of the GFP fluorescent cells are analyzed by flow cytometry (FCM) at different times after infection as desired.
The preparation of virus includes transfecting virus packaging cells (PlatE) with reprogramming factor plasmid cloned onto a PMX vector, refreshing the culture media 12-16 hrs after infection, using the culture collected 48 hrs after the transfection as a virus fluid for the first infection, and using the additional culture collected 24 hrs after adding fresh culture as a virus fluid for the second infection. […]

Assay [2] deals with Oct4-GFP MEFs. In words: Growth curves of SKO-infected embryonic fibroblasts in iCD1 lacking single ingredients. Particulars: ingredient left out of iCD1, cells counted at D0, day 3, day 6. An excerpt: In order to determine whether the effects of the above six substances on reprogramming are cell growth dependent or independent, growth curves of the embryonic fibroblasts infected with reprogramming factor SKO and then cultured respectively in 9 culture states including iCD1, iCD1 without vitamin C, iCD1 without bFGF, iCD1 without CHIR99021, iCD1 without lithium chloride, iCD1 without vitamin B12, iCD1 without thiamine, iCD1 without all of the six ingredients, and mES were plotted. 2×10^4 initial Oct4-GFP MEFs were infected with SKO viruses, and then cultured respectively in the above 9 culture media. The cells were digested respectively at the day of infection and medium replacement (day D0) and days 3 and 6 after infection, and the cells per well were counted. The replications n in each group of test are 3, and the error bar represents standard deviation (SD).

The test system of assay [3] is Oct4-GFP MEFs. As to the kind of experiment: iPS efficiency test: MEFs infected with SKO viruses, reprogrammed clones counted / GFP cell ratio by FCM. Particulars: 1×10^4 MEFs, clones at day 10.

Turning to `O=C(O)CCCC[C@@H]1CCSS1` (racemic) [lipoic acid], the recommended working concentration in assay [1] came to 0.2 µg/mL. With `Cc1cccc(-c2nn(C(=S)Nc3ccccc3)cc2-c2ccnc3ccccc23)n1` [A83-01, reference compound], the “effect on the iCD1 reprogramming efficiency” value in assay [1] (clones at day 10) is on record as “cannot further improve the iCD1 reprogramming efficiency”.

Take `Cc1c[nH]c(-c2cnc(NCCNc3ccc(C#N)cn3)nc2-c2ccc(Cl)cc2Cl)n1` [CHIR99021, reference compound]: the “effect on reprogramming efficiency of Basal3.0” value in assay [1] (added to Basal3.0, clone number and cell ratio as indexes) was “can significantly improve the reprogramming efficiency”. The “effect of high dose on the reprogramming efficiency” value in assay [1] (in iCD1, 0-12 μmol/ml, clones at day 10) is listed as “inhibition effect on the reprogramming efficiency”. For the same compound, the “effect on the reprogramming efficiency” value in assay [1] is recorded as “especially remarkable”. The “effect on cell growth” value in assay [2] is given as “different degrees of effects on cell growth”. Moreover, the optimum effect concentration entry in assay [3] (in iCD1, 0-12 μmol/ml) is listed as “about 3 mM”.

On to `NCCO` [ethanolamine], for which the recommended working concentration in assay [1] was 1 µg/mL.

`CCCCC/C=C\C/C=C\CCCCCCCC(=O)O` [linoleic acid]: the recommended working concentration in assay [1] was 1 µg/mL. Regarding `[Cl-].[Li+]` [lithium chloride, Lithium chloride], in assay [1], the recommended working concentration was 5 mmol/mL and the “effect on the reprogramming efficiency” value is “have effects on the reprogramming efficiency”. With `N[C@@H](CCC(=O)N[C@@H](CS)C(=O)NCC(=O)O)C(=O)O` [reduced glutathione], the recommended working concentration in assay [1] (anti-oxidants) was 1500 µg/mL. As to `Cc1ncc(C[n+]2csc(CCO)c2C)c(N)n1` [thiamine], the recommended working concentration in assay [1] (anti-oxidants) was 9000 µg/mL. Besides, the “effect on the reprogramming efficiency” value in assay [1] is on record as “have effects on the reprogramming efficiency”.

On to `CCCC(CCC)C(=O)O` [valproic acid (VPA), valproic acid, reference compound], for which the “effect on the iCD1 reprogramming efficiency” value in assay [1] (clones at day 10) is given as “cannot further improve the iCD1 reprogramming efficiency”.

As to `O=C1O[C@H]([C@@H](O)CO)C(O)=C1O` [vitamin C, ascorbic acid], in assay [1], the recommended working concentration was found to be 50 µg/mL and the “effect on the reprogramming efficiency” value is “especially remarkable”. Further, in assay [1] (in iCD1, 0-100 μg/ml, 2×10^4 MEFs, clones at day 10), the “concentration above which an increase has no obvious improvement effect on the reprogramming efficiency” value is on record as “higher than 25 μg/ml”. Also, the “effect on cell growth” value in assay [2] is “no obvious effect on cell growth”.

EGF: epidermal growth factor: in assay [1] (added to iCD1 without receptor tyrosine kinase, clones at day 10), the “effect on reprogramming (receptor tyrosine kinase family growth factor)” value is on record as “can also promote the reprogramming”. Take bFGF: basic fibroblast growth factor: the “period of the reprogramming in which it mainly plays a role” value in assay [1] (added to iCD1 at different times from days 0 to 10, clones at day 10, n=6) was 0 to 8 days. In assay [1], the recommended working concentration was determined as 0.005 µg/mL and the “effect on the reprogramming efficiency” value is reported as “especially remarkable”. Further, the “effect on cell growth” value in assay [2] is recorded as “different degrees of effects on cell growth”. For the same compound, the “final concentration above which an increase has no obvious improvement effect on the reprogramming efficiency” value in assay [3] (in iCD1, 0-10 ng/ml) is reported as “higher than 5 ng/ml”.

“insulin: recombinant human insulin (SIGMA Inc.) preferred”: the recommended working concentration in assay [1] was found to be 50 µg/mL. On the same count and under the same terms, in the case of vitamin A it was 0.1 µg/mL. With vitamin B12, in assay [1], the recommended working concentration came out at 1.4 µg/mL and the “effect on the reprogramming efficiency” value is given as “have effects on the reprogramming efficiency”. As to vitamin E, in assay [1] (anti-oxidants), the recommended working concentration turned out to be 1000 µg/mL.

The values above are taken from patent US20130040390A1, “CULTURE MEDIUM SUPPLEMENT AND USE THEREOF” (GUANGZHOU INSTITUTES OF BIOMEDICINE AND HEALTH, CHINESE …, priority 2010, published 2013).
